Measurements from article PMC5742531, “Bio-Catalytic Structural Transformation of Anti-cancer Steroid, Drostanolone Enanthate with Cephalosporium aphidicola and Fusarium lini, and Cytotoxic Potential Evaluation of Its Metabolites against Certain Cancer Cell Lines” (Frontiers in Pharmacology, 2017).
Read-outs that look alike come from different tables or passages of the source.

How the values were obtained:
[1] = tested on: NCl-H460 (human lung carcinoma ATCC HTB-177); assay: MTT cytotoxicity assay, H460 cell line; type: cell-based; conditions: H460 cells, read-out: H460 cell line (Lung cancer) IC50 ± SD
Procedure: (§1) The cytotoxicity of samples was measured against HeLa (human cervical carcinoma ATCC CCl-2), PC-3 (human prostate cancer ATCC CRL-1435), NCl-H460 (human lung carcinoma ATCC HTB-177), HCT116 (human colon cancer ATCC CCl-247), and 3T3 (control fibroblast normal ATCC CRL-1658) cell lines by using standard MTT assay. Cell lines were grown in DMEM F12 media, supplemented with 10% FBS under a 5% CO2 atmosphere at 37°C in an incubator.
(§2) The colorimetric assay MTT [3-(4, 5-dimethyl thiazol-2yl)-2, 5-diphenyl tetrazolium bromide] was used for the evaluation of cell metabolic activity. In this assay, the yellow MTT is reduced to purple formazon in the mitochondria of the living cells (Gerlier and Thomasset, [1986]). The more the living cells, the more the color and thus more absorbance is observed by colorimeter (Fesahat et al., [2015]). We have used this method to analyze the effect of our transformed products on cellular cytotoxicity against cancer cells. Around 10,000 cells of each cell line (HeLa, PC3, H460, HCT116 cancers, and 3T3 normal) were seeded in 96-well plates. After reaching 80–90% confluency, they were treated with various concentrations of compounds (25, 50, 75, 100, and 200 μM) for 24 h. All compounds were dissolved in sterile DMSO to make a 200 mM stock solution. The solution was filtered, and serial dilutions were made in growth medium. 600 μL of each dilution was used to treat 3 wells (triplicate of each) of 96 well plate i.e., 200 μL each. Each experiment was performed in three biological replicates. MTT was added, and incubated for 4 h. […] The Multiskan reader gives λmax at 540 nm in DMSO treated 3T3 fibroblast cells (that are more confluent in morphology) whereas in case of cancer cells, 570 nm gives λmax (Bonmati-Carrion et al., [2013]; Danihelová et al., [2013]). A broad range of epithelial carcinoma cell lines were used in this experiment where cisplatin was a common drug of choice. It targets DNA, interferes with cell division during mitosis and induces apoptosis (Eastman, [1999]). IC50 values were calculated to determine the minimum concentration required to kill 50% of the cells.
(§3) % Inhibition=100-(At-Ab)/(Ac-Ab) ×100% Cell survival=(At-Ab)/(Ac-Ab) ×100

[2] = tested on: HeLa (human cervical carcinoma ATCC CCl-2); assay: MTT cytotoxicity assay, HeLa cell line; type: cell-based; conditions: 24 h treatment, HeLa cells, read-out: HeLa cell line (Cervical cancer) IC50 ± SD
Procedure: as §1, §2, §3

[3] = tested on: HCT116 (human colon cancer ATCC CCl-247); assay: MTT cytotoxicity assay, HCT116 cell line; type: cell-based; conditions: HCT116 cells, read-out: HCT116 cell line (Colon cancer) IC50 ± SD
Procedure: as §1, §2, §3

[4] = tested on: PC-3 (human prostate cancer ATCC CRL-1435); assay: MTT cytotoxicity assay, PC-3 cell line; type: cell-based; conditions: 24 h treatment, PC3 cells, read-out: PC3 cell line (Prostate cancer) IC50 ± SD
Procedure: as §1, §2, §3

[5] = tested on: 3T3 (control fibroblast normal ATCC CRL-1658); assay: MTT cytotoxicity assay, 3T3 normal cell line; type: cell-based; conditions: 3T3 normal cells, read-out: 3T3 cell line (Mouse fibroblast) IC50 ± SD
Procedure: as §1, §2, §3

[6] = Homo sapiens, NCI-H460, 24 h treatment
[7] = Homo sapiens, HCT-116, 24 h treatment
[8] = Mus musculus, NIH3T3, 24 h treatment

CCCCCCC(=O)OC1CCC2C3CCC4CC(=O)C(C)CC4(C)C3CCC12C (centres unmarked) [Compound 1, drostanolone enanthate]
IC50 [1, 6]: 5 ± 1.2 µM | IC50 ([2]; Homo sapiens): 54.7 ± 1.6 µM | IC50 [3, 7]: 3.1 ± 3.2 µM | IC50 ([4]; Homo sapiens, PC-3, 24 h): 96.2 ± 3 µM | IC50 [5, 8]: > 150 µM

C[C@@H]1C[C@@]2(C)[C@@H](CC[C@@H]3[C@@H]2CC[C@]2(C)[C@@H](O)CC[C@@]32O)C[C@@H]1O [Compound 2, 2α-methyl-3α,14α,17β-trihydroxy-5α-androstane]
IC50 [1, 6]: 44.4 ± 2 µM | IC50 ([2]; Homo sapiens): 64.3 ± 3 µM | IC50 [3, 7]: 39.4 ± 2 µM | IC50 ([4]; Homo sapiens, PC-3, 24 h): 84.6 ± 6.4 µM | IC50 [5, 8]: > 150 µM

C[C@@H]1C[C@@]2(C)[C@H](CC1=O)C[C@@H](O)[C@@H]1[C@@H]2CC[C@]2(C)C(=O)CC[C@@H]12 [Compound 3, 2α-methyl-7α-hydroxy-5α-androstan-3,17-dione]
IC50 [1, 6]: 16.7 ± 2.6 µM | IC50 ([2]; Homo sapiens): 58 ± 1 µM | melting point: 230 to 234 °C | IC50 [3, 7]: 42.8 ± 1.2 µM | IC50 [4]: 68.1 ± 1.2 µM | IC50 ([4]; Homo sapiens, PC-3, 24 h): 68 ± 1.2 µM | IC50 [5, 8]: > 150 µM

C[C@@H]1C[C@@]2(C)[C@@H](CC[C@@H]3[C@@H]2CC[C@]2(C)[C@@H](O)CC[C@@H]32)C[C@@H]1O [Compound 4, 2α-methyl-3α,17β-dihydroxy-5α-androstane]
IC50 [1, 6]: 12.4 ± 2.3 µM | IC50 ([2]; Homo sapiens): 49.5 ± 2.2 µM | melting point: 242 to 245 °C | IC50 [3, 7]: 80.9 ± 1.6 µM | IC50 ([4]; Homo sapiens, PC-3, 24 h): 60.4 ± 0.9 µM | IC50 [5, 8]: > 150 µM

CC1=C[C@@]2(C)C(=CC1=O)CC[C@@H]1[C@@H]2CC[C@]2(C)C(=O)CC[C@@H]12 [Compound 5, 2-methylandrosta-1,4-diene-3,17-dione]
IC50 ([2]; Homo sapiens): 39.8 ± 1.5 µM | melting point: 198 to 202 °C | IC50 [3, 7]: 30.4 ± 1.6 µM | IC50 ([4]; Homo sapiens, PC-3, 24 h): 84 ± 3.1 µM | IC50 [5, 8]: > 150 µM

CC1=C[C@@]2(C)C(=CC1=O)CC[C@@H]1[C@@H]2[C@H](O)C[C@]2(C)C(=O)CC[C@@H]12 [Compound 6, 2-methylandrosta-11α-hydroxy-1,4-diene-3,17-dione]
IC50 [1, 6]: 33.2 ± 1 µM | IC50 ([2]; Homo sapiens): 40.7 ± 0.9 µM | melting point: 230 to 234 °C | IC50 [3, 7]: 45.9 ± 4.2 µM | IC50 ([4]; Homo sapiens, PC-3, 24 h): 58.4 ± 1.6 µM | IC50 [5, 8]: > 150 µM

CC1=C[C@@]2(C)C(=CC1=O)CC[C@@H]1[C@@H]2CC[C@]2(C)C(=O)CC[C@@]12O [Compound 7, 2-methylandrosta-14α-hydroxy-1,4-diene-3,17-dione]
IC50 [1, 6]: 38.5 ± 2.8 µM | IC50 ([2]; Homo sapiens): 43.9 ± 2.4 µM | melting point: 224 to 228 °C | IC50 [3, 7]: 46.6 ± 3 µM | IC50 ([4]; Homo sapiens, PC-3, 24 h): 59.1 ± 2.6 µM | IC50 [5, 8]: > 150 µM

CC1=C[C@@]2(C)[C@H](CC1=O)C[C@@H](O)[C@@H]1[C@@H]2CC[C@]2(C)C(=O)CC[C@@H]12 [Compound 8, 2-methylandrosta-7α-hydroxy-1-ene-3,17-dione]
IC50 [1, 6]: 26.4 ± 0.9 µM | IC50 ([2]; Homo sapiens): 19.6 ± 1.4 µM | melting point: 250 to 256 °C | IC50 [3, 7]: 55 ± 1.9 µM | IC50 ([4]; Homo sapiens, PC-3, 24 h): 51.8 ± 3.4 µM | IC50 [5, 8]: 74.6 ± 3.7 µM

C[C@@H]1C[C@@]2(C)[C@@H](CC[C@@H]3[C@@H]2CC[C@]2(C)[C@@H](O)CC[C@@H]32)CC1=O [Compound 9, 2α -methyl-5α-androstane-17β-hydroxy-3-one]
IC50 [1, 6]: 31.8 ± 1.2 µM | IC50 ([2]; Homo sapiens): 25.1 ± 1.6 µM | IC50 [3, 7]: 2.8 ± 0.2 µM | IC50 ([4]; Homo sapiens, PC-3, 24 h): 57.8 ± 3.2 µM | IC50 [5, 8]: 62.1 ± 1.2 µM

N.N.[Cl][Pt][Cl] [cisplatin, reference compound]
IC50 ([1]; 24 h treatment): 22.2 ± 2.1 µM | IC50 [2]: 40.1 ± 2 µM | IC50 ([3]; 24 h treatment): 11.2 ± 3.03 µM | IC50 [4]: 76.5 ± 1.2 µM | IC50 ([5]; 24 h treatment): 42.7 ± 0.8 µM
